Format in all cases: cell-based
For test [1], the target named is T1, wild type Drosophila RDL receptor (Drosophila melanogaster, UniProt P25123).
T1 construct: expressed in transfected cells; host or cells: Xenopus laevis oocytes injected with cRNA
T1 sequence (P25123 45-606): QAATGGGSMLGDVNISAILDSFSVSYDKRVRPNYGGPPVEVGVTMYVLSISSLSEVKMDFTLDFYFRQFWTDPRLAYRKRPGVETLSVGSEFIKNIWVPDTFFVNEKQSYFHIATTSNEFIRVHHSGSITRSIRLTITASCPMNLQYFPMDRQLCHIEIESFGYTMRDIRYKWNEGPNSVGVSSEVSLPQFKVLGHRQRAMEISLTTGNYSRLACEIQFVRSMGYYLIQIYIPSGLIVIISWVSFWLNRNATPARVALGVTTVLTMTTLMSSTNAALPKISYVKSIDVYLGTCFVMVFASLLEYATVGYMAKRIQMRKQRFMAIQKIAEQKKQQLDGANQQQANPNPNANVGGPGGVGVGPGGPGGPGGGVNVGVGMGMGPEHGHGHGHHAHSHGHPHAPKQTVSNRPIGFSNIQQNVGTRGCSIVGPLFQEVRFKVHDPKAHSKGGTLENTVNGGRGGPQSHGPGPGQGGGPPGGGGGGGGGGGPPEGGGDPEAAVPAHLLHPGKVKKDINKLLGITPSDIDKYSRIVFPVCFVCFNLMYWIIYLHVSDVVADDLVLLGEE
Description: Thymol modulation of GABA concentration-response curves, two electrode voltage clamp in Xenopus oocytes. The conditions noted are these: WT RDL. Here is the method:
(§1) X. laevis oocyte-positive females were purchased from NASCO (Fort Atkinson, Wisconsin, USA) and maintained according to standard methods. Harvested stage V-VI Xenopus oocytes were washed in four changes of ND96 (96 mM NaCl, 2 mM KCl, 1 mM MgCl2, 1 mM CaCl2, 5 mM HEPES, pH 7.5), de-folliculated in 1.5 mg ml^−1 collagenase Type 1A for approximately 2 h, washed again in four changes of ND96 and stored in ND96 containing 2.5 mM sodium pyruvate, 0.7 mM theophylline and […].
(§2) Site directed mutagenesis was performed with the QuikChange mutagenesis kit (Agilent, La Jolla, CA). cRNA was transcribed in vitro from linearised pGEMHE cDNA template using the mMessage mMachine T7 Transcription kit (Ambion, Austin, Texas, USA). Stage V and VI oocytes were injected with 5 ng cRNA, incubated at 18 °C, and currents recorded 18–24 h post-injection.
(§3) Currents were recorded at 5 kHz and filtered at a frequency of 1 kHz. Micro-electrodes were fabricated from borosilicate glass (GC120TF-10, Harvard Apparatus, Edenbridge, Kent, UK) using a one stage horizontal pull (P-87, Sutter Instrument Company, California, USA) and filled with 3 M KCl. […] Oocytes were perfused with ND96 at a constant rate of 12 ml min^−1. Drug application was via a simple gravity fed system calibrated to run at the same rate.
(§4) Analysis and curve fitting was performed using Prism v5 (GraphPad Software, San Diego, California, USA). Concentration-response data for each oocyte was normalised to the maximum current for that oocyte. The mean and S.E.M. for a series of oocytes were fitted to the four parameter logistic equation in Prism.
(In general: Two-electrode voltage clamp holds a large cell at a set potential and records current.)

Test [2] addresses T2, T6′M mutant Drosophila RDL receptor (Drosophila melanogaster, UniProt P25123, T305M).
T2 construct: expressed in transfected cells; host or cells: Xenopus laevis oocytes injected with cRNA
T2 sequence (P25123 45-606 T305M): T1 sequence (P25123 45-606) with T261M
Described as above. Here is the method:
as §1, §2, §3, §4

Test [3] deals with T3, 4M2 mutant Drosophila RDL receptor (N-7′H, T6′M, A20′S and A21′Q) (Drosophila melanogaster, UniProt P25123, A319S/A320Q/N292H/T305M).
T3 construct: expressed in transfected cells; host or cells: Xenopus laevis oocytes injected with cRNA
T3 sequence (P25123 45-606 N292H/T305M/A319S/A320Q): T1 sequence (P25123 45-606) with N248H, T261M, A275S, A276Q
To be noted: 4M2 RDL. As to the method: as §1, §2, §3, §4

The mark [4] stands for this setting: GABA EC50 control vs +100 μM thymol.
[5] abbreviates: GABA concentration-response in presence of 100 μM thymol.
[6] abbreviates: 100 μM thymol, at some GABA concentrations.

Each structure is given as a SMILES string. Where a chain is given by its changes, count along the chain named.

`Cc1ccc(C(C)C)c(O)c1` [Thymol, thymol]: the “Effect of thymol on GABA-induced responses” value is “enhance” in test [1] (100 μM thymol, 1 μM GABA); “inhibition” in test [2] (setting [6]); “inhibition” in test [3] (setting [6]). Also, the “Fold change in EC50” value in test [1] (setting [4]) came to 4.8; in test [2] (setting [4]), 3.4; in test [3] (setting [4]) it was 3.0. The entries for the “% Imax” value in test [1] (setting [5]), in test [2] (setting [5]) and in test [3] (setting [5]) were 94 ± 3%, 35 ± 9% and 52 ± 4%, respectively.

Source of the values: PMC4261083, “An atypical residue in the pore of Varroa destructor GABA-activated RDL receptors affects picrotoxin block and thymol modulation” (Insect Biochemistry and Molecular Biology, 2014).
